{"source": "paper PMC4704049", "about": "“Potential Dual Role of Eugenol in Inhibiting Advanced Glycation End Products in Diabetes: Proteomic and Mechanistic Insights” (Scientific Reports, 2016)", "target": "T1, bovine serum albumin (BSA) (Bos taurus, UniProt P02769)", "T1 construct": "gene ALB", "T1 sequence (P02769 25-607)": "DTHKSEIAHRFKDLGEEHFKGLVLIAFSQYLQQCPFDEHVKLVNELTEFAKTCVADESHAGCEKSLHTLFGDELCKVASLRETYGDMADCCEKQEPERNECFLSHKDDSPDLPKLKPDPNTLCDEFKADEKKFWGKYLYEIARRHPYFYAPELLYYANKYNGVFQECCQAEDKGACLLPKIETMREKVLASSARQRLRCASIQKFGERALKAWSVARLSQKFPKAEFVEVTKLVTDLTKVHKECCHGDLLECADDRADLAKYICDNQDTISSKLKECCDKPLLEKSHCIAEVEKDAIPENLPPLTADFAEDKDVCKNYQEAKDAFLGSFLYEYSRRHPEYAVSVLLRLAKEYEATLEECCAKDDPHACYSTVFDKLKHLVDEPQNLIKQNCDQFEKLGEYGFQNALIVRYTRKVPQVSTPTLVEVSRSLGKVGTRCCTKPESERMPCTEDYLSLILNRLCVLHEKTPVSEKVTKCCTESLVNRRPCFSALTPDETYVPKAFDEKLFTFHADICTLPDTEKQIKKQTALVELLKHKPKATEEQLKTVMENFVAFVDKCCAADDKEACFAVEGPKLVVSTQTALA", "test": "intrinsic fluorescence quenching (eugenol […])", "type": "binding", "data": [{"smiles": "C=CCc1ccc(O)c(OC)c1", "note": "[EUG, eugenol]", "values": [{"measurement": "intrinsic fluorescence quenching (eugenol 1-50 mM)", "value": "In the intrinsic fluorescence assay, it was evident that eugenol binds to BSA in a concentration dependent manner"}]}]}
